Assay results taken from patent US12558393B2, “Compositions and methods of BDNF activation” (VDF Futureceuticals, Inc., priority 2013, dated 2026).

System: BDNF plasma levels
Test: Plasma BDNF by ELISA in healthy fasted subjects after a single oral dose
Assay type: in vivo, human
Conditions: 50 mg single dose, five healthy subjects (FIG. 2)

Structure (SMILES): O=C(/C=C/c1ccc(O)c(O)c1)O[C@@H]1C[C@](O)(C(=O)O)C[C@@H](O)[C@H]1O [chlorogenic acid]
- blood level of BDNF, increase: did not increase blood level of BDNF in a statistically significant manner
